The values below come from a melting point compilation (Tetko et al.; mined from patent text by program, amines drawn as free bases though some values may be those of a salt).

Some results are limits rather than exact numbers.

One may read the melting point as the temperature, or range, at which the solid turns liquid. The compound `COc1cc(C=C(C(=O)O)c2ccc(O)cc2)cc(OC)c1` showed a melting point of 135 to 137 °C.

Consider `O=C(NCc1ccccc1-c1ccccc1C(=O)NCCc1ccccn1)c1ccccc1`, for which the melting point was determined as 135 °C.

Turning to `O=C(NCC1CCN(C(=O)OCc2ccccc2)CC1)c1ccc(O)cc1`, the melting point lay in the range of 122 to 123 °C.

On to `O=C1c2cccc(NCCO)c2OC12CC2`, for which the melting point lay within 74 to 77 °C.

`NC(Cc1cc2nccnc2cc1CP(=O)(O)O)C(=O)O` (stereo not given) had a melting point of 250 °C.

`Cc1cc(-n2cncn2)ncc1[N+](=O)[O-]` registered a melting point of 198 to 200 °C.

`CC1CCc2ccc(NC(=O)C(F)(F)F)c3c(=O)c(C(=O)O)cn1c23` (stereo not given) displayed a melting point of 301 to 303 °C.

As for `CCN1C(=O)c2cccc3c(S(C)(=O)=O)ccc1c23`, the melting point is 199 to 203 °C.

`Cc1nnc2ccc(-c3ccccc3Cl)nn12` had a melting point of 146 to 148 °C.

As for `COCCc1nc2c(N)nc3ccc(CCC(=O)N(C)C)cc3c2n1CCCN1CCCC1=O`, the melting point is 184 to 186 °C.

`Nc1nc(-c2cccnc2)c(Cl)s1`: the melting point amounted to 202 °C.

`O=c1c2ccccc2nc(-c2cc(-c3ccncc3)c(N3CCOCC3)s2)n1-c1ccccc1`: the melting point lay in the range of 230 to 231 °C.

With `Cc1ccc(NC(=O)C=Cc2ccccc2)cc1NC(=O)C=Cc1ccccc1`, the melting point was in the range of 217 to 219 °C.

Take `CCc1nc2c(cnn2CC)c(NC2CCOCC2)c1CNC(=O)c1cc(C)cc(C(=O)NCc2ccc(OC)c(-c3cccc(CC4CCN(C)CC4)c3)c2)c1`: the melting point is 115 to 117 °C.

`CC(C)(C)NC(=O)[C@@H]1C[C@H](Cl)CN1C(=O)[C@@H](O)[C@H](Cc1ccccc1)NC(=O)[C@H](CC(N)=O)NC(=O)c1cnc2cc([N+](=O)[O-])ccc2n1` showed a melting point of 153 to 156 °C.

Turning to `C=CS(=O)(=O)c1c(Cl)c(Cl)nn1C`, the melting point is 66 to 69 °C.

`CC(=O)C(=NNc1cccc(C)c1)Sc1ccc(Cl)cc1` yielded a melting point of 112 to 114 °C.

With `CCOC(=O)c1cn(Cc2ccc(OCc3nc(-c4ccccc4)oc3C)cc2)nc1OCc1ccc(OCc2nc(-c3ccccc3)oc2C)cc1`, the melting point was in the range of 118 to 119 °C.

With `CC12CCCC=C1CCC1C2CCC2(C)C(OC3CCCCO3)CCC12` (stereo not given), the melting point was 92 to 96 °C.

As for `CNc1ccccc1C(=O)N1Cc2ccccc2C(=O)N1`, the melting point lay in the range of 199 to 202 °C.

On to `O=C(NC/C=C/c1ccccc1)c1ccc(OC(F)(F)F)cc1`, for which the melting point turned out to be 136 °C.

For `COc1cc(C(C)=O)ccc1OCCCCN1CCC(c2nsc3ccccc23)CC1`, the melting point was in the range of 78 to 80 °C.

Take `CC(C)(N)CNC(=O)Cc1ccccc1`: the melting point lay in the range of 68 to 71 °C.

On to `CC(C)CC[C@H](O)[C@H](CC1CCCCC1)NC(=O)[C@H](Cc1c[nH]cn1)NC(=O)OC(C)(C)C`, for which the melting point is 96 to 100 °C.

With `CCC1=C(C)CN(C(=O)NC2COc3cc(OC)c(S(=O)(=O)NC(=O)NC)cc3C2)C1=O` (stereo not given), the melting point is 245 to 246 °C.

For the compound `COc1ccccc1-n1c(=O)[nH]c2c(C(N)=O)nc(-c3cccc4ncccc34)nc21`, the melting point is 335 to 337 °C.

In the case of `CC/C=C\Cn1c(=S)sc2c(=O)[nH]c(N)nc21`, the melting point is greater than 320 °C.

For the compound `CCCCC(=N)NC(=O)Nc1ccc(N)cc1`, the melting point fell in the range of 102 to 103 °C.

Regarding `O=C(NCC1CC1)c1[nH]c2ccc(Cl)cc2c1S(=O)(=O)c1ccccc1`, the melting point fell in the range of 232 to 234 °C.

Regarding `Oc1ccc2c(c1)Cc1c-2cc2ccc(O)cc2c1C=C(F)F`, the melting point fell in the range of 211 to 212 °C.

`CC(=O)NCCSc1c(Cl)cc(N)c(C)c1N` showed a melting point of 111 °C.

With `CNN1CSC(=Cc2cc(C(C)(C)C)c(O)c(C(C)(C)C)c2)C1=O`, the melting point fell in the range of 151 to 154 °C.

`CSc1nn2c(O)cc(CCl)nc2c1S(=O)(=O)c1ccccc1` yielded a melting point of 215 to 217 °C.

Regarding `CCCCc1oc2ccccc2c1C(=O)NCc1ccc2c(-c3ccc(OC)cc3)c(OC(Cc3ccccc3)C(=O)OC)ccc2c1` (stereo not given), the melting point lay in the range of 103 to 105 °C.

Consider `COC(=O)CCCCCCNC(=O)C(CS)Cc1ccccc1` (stereo not given), for which the melting point was 68 to 70 °C.

For the compound `Clc1nc2cc(Cl)c(Cl)c(Cl)c2[nH]1`, the melting point lay within 243 to 244 °C.

Turning to `CCOC(=O)c1cn(-c2ccc(Cl)cc2)c(-c2ccc(Cl)cc2Cl)n1`, the melting point fell in the range of 143 to 144 °C.

`CN(C)CCCc1cc(C(=O)Nc2ccc(-c3ccc(C(=O)O)cc3)cc2)ccc1O` returned a melting point of 278 to 280 °C.

Compound `Cn1cc(CCN2CCC3(CC2)CNC(=O)O3)c2ccccc21` registered a melting point of 158 to 161 °C.

In turn, `O=CC1C(=O)CCC(c2ccccc2)(c2ccccc2)C1C[N+](=O)[O-]` (stereo not given) came in with a melting point of 188 °C.

With `Cc1c(O)c(C(C)(C)C)c(Cc2cc(C(C)(C)C)c(O)c(C(C)(C)C)c2)c(C)c1Cc1cc(C(C)(C)C)c(O)c(C(C)(C)C)c1`, the melting point was 140 °C.

In the case of `COC(=O)c1ncccc1C(=O)c1ccc(-n2ccnc2)cc1`, the melting point lay within 150 to 157 °C.

For `CCC1=CC=CC(CC)(c2ccncc2)C1c1c(OC(=O)C(C)(C)C)n2n(c1=O)CCOCC2` (stereo not given), the melting point fell in the range of 146 to 147 °C.

In the case of `CC(C)(C)OC(=O)NC12CC3CC(C1)CC(OS(C)(=O)=O)(C3)C2`, the melting point fell in the range of 100 to 102 °C.

Turning to `COc1ccc(C=CS(=O)(=O)N2C(=O)CCC2OC(C)C)cc1` (stereo not given), the melting point fell in the range of 101 to 103 °C.

In turn, `CN(Cc1ccccc1)c1nc(N2CCC(N(C)C)CC2)nc2c(N3CCOCC3)ncnc12` returned a melting point of 122 °C.

Turning to `CC(=O)C(=[N+]=[N-])C(=O)CCc1ccc(S(N)(=O)=O)cc1`, the melting point fell in the range of 110 to 112 °C.

On to `Cc1nnc2n1-c1sc(C#CCn3c(=O)c4ccccc4c4ccccc43)cc1C(c1ccccc1Cl)=NC2`, for which the melting point was 247 to 249 °C.

For `O=C(c1ccc(F)cc1)C1CCN(C2Sc3ccccc3NC2=O)CC1` (stereo not given), the melting point was determined as 218 °C.

Compound `COC(=O)C(C)(NC1OC(=O)C2C3C=CC(C3)C12)c1ccccc1` (stereo not given) had a melting point of 120 °C.

As to `CCCOc1ccc(F)c2c(=O)c(-c3ccc(C(=O)N4CCOCC4)cc3)c[nH]c12`, the melting point lay in the range of 234 to 236 °C.

Turning to `Cc1cc([N+](=O)[O-])c2[nH]cc(CO)c(=O)c2c1`, the melting point was greater than 240 °C.

`O=[N+]([O-])c1ccc(OS(=O)(=O)c2cccnc2Cl)cc1` displayed a melting point of 127 to 128 °C.

In the case of `CC(CC(=O)OCc1ccccc1)NC(=O)CCNC(=O)OC(C)(C)C` (stereo not given), the melting point was 70 to 72 °C.

For the compound `COc1cnc(N2CCN(c3ccc(N)cc3)CC2)nc1`, the melting point came to 125 °C.

Take `CCOC(=O)Cc1c(C(=O)OCC)c(CC)cn1C`: the melting point is 65 to 67 °C.

Compound `CC(C)(C)OC(=O)N1CCCC(C(=O)N2CCC(c3[nH]nc4c3C(=O)c3c(NC(=O)NN5CCOCC5)cccc3-4)CC2)C1` (stereo not given) returned a melting point of 196 to 198 °C.

For the compound `O=C(Nc1cccnc1)N1CCN(c2nccc(-c3cc(F)ccc3F)n2)CC1`, the melting point lay in the range of 270 to 271 °C.

The compound `CSc1nccc(NC(N)=NCC(F)(F)F)n1` displayed a melting point of 201 to 202 °C.

`CC1=CC(c2cccc(Cl)c2)C=C(CN2C(=O)c3ccccc3C2=O)N1` (stereo not given) displayed a melting point of 128 to 130 °C.

Compound `Nc1cc(C2CC2)nn1C(=O)Nc1ccccc1` had a melting point of 97 to 99 °C.

In the case of `CSCCOC(=O)CSc1cc(N=c2sc(=O)n3n2CCCC3)ccc1Cl`, the melting point was 57 to 58 °C.

`COc1cc2c(Nc3ccc(Cl)cc3F)ncnc2cc1OCc1ccnc(C)c1` registered a melting point of 221 to 224 °C.

Take `CN(CCC12CC3CC(CC(C3)C1)C2)C(=O)NCCCc1ccncc1`: the melting point was 99 to 109 °C.

As to `CC(C)n1nc(-c2c(-c3ccccc3)nn3ccc(OCC(=O)Nc4ccccc4)cc23)ccc1=O`, the melting point was in the range of 208 to 209 °C.

Regarding `O=C(CC1COC1)N[C@H]1CC[C@H](CCN2CCC(c3cccc4c3CCO4)CC2)CC1`, the melting point came to 197 °C.

As to `O=C(NCC(S)CO)OCc1ccc([N+](=O)[O-])cc1` (stereo not given), the melting point fell in the range of 65 to 67 °C.

With `O=C1NCCNc2c1cccc2[N+](=O)[O-]`, the melting point was in the range of 191 to 195 °C.

`C[C@@H]1S[C@@H](C(=O)Nc2ccc(CN3C(=O)CN(C)C3=O)cc2)Cc2cc3c(cc2C1=O)OCO3`: the melting point was in the range of 228 to 230 °C.

Take `CC1Cc2cc(S(N)(=O)=O)cc(C(=O)O)c2O1` (stereo not given): the melting point is 245 to 246 °C.

`CC(=O)OCCC(=C(c1ccccc1)c1ccccc1)c1ccccc1` displayed a melting point of 81 to 83 °C.

`COCCNS(=O)(=O)CC1CC(C)(C)Oc2ccc(OCCO)cc21` (stereo not given) registered a melting point of 61 to 63 °C.

For the compound `COc1ccc2[nH]c(C)c(C=O)c2c1`, the melting point lay in the range of 190 to 191 °C.

`CC(C)c1cc(C(C)C)c(S(=O)(=O)n2ccc3ccccc32)c(C(C)C)c1` came in with a melting point of 131 to 133 °C.

`CCc1c(N)c(C(N)=O)nn1Cc1cccnn1` displayed a melting point of 177 to 185 °C.

In turn, `CS(=O)(=O)c1ccc(-c2cnn(C3Cc4ccccc4C3)c(=O)c2-c2ccc(F)cc2)cc1` registered a melting point of 97 to 100 °C.

For `CCN(CC)C(=O)c1cc2cc(Br)ccc2o1`, the melting point fell in the range of 79 to 81 °C.

`COC(=O)N(C)n1c(C)nc(N2CCc3ccccc3CC2)c(C#N)c1=O`: the melting point fell in the range of 120 to 122 °C.

Compound `Cc1ccc2c(c1)NC(=O)C(NC(=O)Nc1cccc(Cl)c1)CC2C1CCCCC1` (stereo not given) yielded a melting point of 162 to 169 °C.

Compound `CN(C(=O)Nc1ccccc1CCc1cc(C(C)(C)C)c(O)c(C(C)(C)C)c1)C1CCN(Cc2ccccc2)CC1` came in with a melting point of 144 to 146 °C.

With `CSc1ccc(-c2nc(SC)c(C#N)c(=O)n2-c2ccc(C)cc2C)cc1`, the melting point fell in the range of 203 to 205 °C.

As to `CC(C)CC(=O)Nc1cccc(-c2ccnc3c(-c4cc(Cl)cc(Cl)c4)cnn23)c1`, the melting point was 223 to 225 °C.

`CCCN(C)CCCN1CCN(c2cc(-c3ccnc(NCc4cccc(OC)c4)n3)cc3ccc(OC)cc23)CC1` gave a melting point of 156 to 160 °C.

`O=C1Nc2cc(Cl)ccc2C(=O)C1c1cccnc1` (stereo not given) gave a melting point greater than 340 °C.

Compound `CCOc1c(N)c2c(c(OCC)c1OCC)C(C1c3c(cc4c(c3OC)OCO4)CCN1C)OC2=O` (stereo not given) gave a melting point of 180 to 182 °C.
